# Results: PubChem BioAssay (NCI)
#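 Compound exposure: 48 hours, 5 concentrations, 96-well plates. TGI: concentration producing complete growth inhibition.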
# Columns and labels:
# Test in all cases: DTP human tumour cell line panel, 48 h
# 786-0 renal = test system: 786-0 renal
# A498 renal = test system: A498 renal
# A549 NSCLC = test system: A549 NSCLC
# ACHN renal = test system: ACHN renal
# BT-549 breast = test system: BT-549 breast
# CAKI-1 renal = test system: CAKI-1 renal
# CCRF-CEM leukemia = test system: CCRF-CEM leukemia
# COLO 205 colon = test system: COLO 205 colon
# DU-145 prostate = test system: DU-145 prostate
# EKVX NSCLC = test system: EKVX NSCLC
# HCC-2998 colon = test system: HCC-2998 colon
# HCT-116 colon = test system: HCT-116 colon
# HCT-15 colon = test system: HCT-15 colon
# HL-60(TB) leukemia = test system: HL-60(TB) leukemia
# HOP-62 NSCLC = test system: HOP-62 NSCLC
# HOP-92 NSCLC = test system: HOP-92 NSCLC
# HS 578T breast = test system: HS 578T breast
# HT29 colon = test system: HT29 colon
# IGROV1 ovarian = test system: IGROV1 ovarian
# K-562 leukemia = test system: K-562 leukemia
# KM12 colon = test system: KM12 colon
# LOX IMVI melanoma = test system: LOX IMVI melanoma
# M14 melanoma = test system: M14 melanoma
# MALME-3M melanoma = test system: MALME-3M melanoma
# MCF7 breast = test system: MCF7 breast
# MDA-MB-231 breast = test system: MDA-MB-231 breast
# MDA-MB-435 = test system: MDA-MB-435
# MDA-N = test system: MDA-N
# MOLT-4 leukemia = test system: MOLT-4 leukemia
# NCI-H226 lung = test system: NCI-H226 lung
# NCI-H23 lung = test system: NCI-H23 lung
# NCI-H460 lung = test system: NCI-H460 lung
# NCI-H522 lung = test system: NCI-H522 lung
# NCI/ADR-RES ovarian = test system: NCI/ADR-RES ovarian
# OVCAR-3 ovarian = test system: OVCAR-3 ovarian
# OVCAR-4 ovarian = test system: OVCAR-4 ovarian
# OVCAR-5 ovarian = test system: OVCAR-5 ovarian
# OVCAR-8 ovarian = test system: OVCAR-8 ovarian
# PC-3 prostate = test system: PC-3 prostate
# RPMI-8226 leukemia = test system: RPMI-8226 leukemia
# RXF 393 renal = test system: RXF 393 renal
# SF-268 CNS = test system: SF-268 CNS
# SF-295 CNS = test system: SF-295 CNS
# SF-539 CNS = test system: SF-539 CNS
# SK-MEL-2 melanoma = test system: SK-MEL-2 melanoma
# SK-MEL-28 melanoma = test system: SK-MEL-28 melanoma
# SK-MEL-5 melanoma = test system: SK-MEL-5 melanoma
# SK-OV-3 ovarian = test system: SK-OV-3 ovarian
# SN12C renal = test system: SN12C renal
# SNB-19 CNS = test system: SNB-19 CNS
# SNB-75 CNS = test system: SNB-75 CNS
# SW-620 colon = test system: SW-620 colon
# T-47D breast = test system: T-47D breast
# TK-10 renal = test system: TK-10 renal
# U251 CNS = test system: U251 CNS
# UACC-257 melanoma = test system: UACC-257 melanoma
# UACC-62 melanoma = test system: UACC-62 melanoma
# SR leukemia = test system: SR leukemia
# UO-31 renal = test system: UO-31 renal
smiles,measurement,setting,value
COc1ccc(/C=C/c2cnnc3ccccc23)cc1OC,TGI,786-0 renal,> 10 µM
same,TGI,A498 renal,> 10 µM
same,TGI,A549 NSCLC,> 10 µM
same,TGI,ACHN renal,> 10 µM
same,TGI,BT-549 breast,> 10 µM
same,TGI,CAKI-1 renal,> 10 µM
same,TGI,CCRF-CEM leukemia,> 10 µM
same,TGI,COLO 205 colon,> 10 µM
same,TGI,DU-145 prostate,> 10 µM
same,TGI,EKVX NSCLC,> 10 µM
same,TGI,HCC-2998 colon,> 10 µM
same,TGI,HCT-116 colon,> 10 µM
same,TGI,HCT-15 colon,> 10 µM
same,TGI,HL-60(TB) leukemia,> 10 µM
same,TGI,HOP-62 NSCLC,> 10 µM
same,TGI,HOP-92 NSCLC,> 10 µM
same,TGI,HS 578T breast,> 10 µM
same,TGI,HT29 colon,> 10 µM
same,TGI,IGROV1 ovarian,> 10 µM
same,TGI,K-562 leukemia,> 10 µM
same,TGI,KM12 colon,> 10 µM
same,TGI,LOX IMVI melanoma,> 10 µM
same,TGI,M14 melanoma,> 10 µM
same,TGI,MALME-3M melanoma,> 10 µM
same,TGI,MCF7 breast,> 10 µM
same,TGI,MDA-MB-231 breast,> 10 µM
same,TGI,MDA-MB-435,> 10 µM
same,TGI,MDA-N,> 10 µM
same,TGI,MOLT-4 leukemia,> 10 µM
same,TGI,NCI-H226 lung,> 10 µM
same,TGI,NCI-H23 lung,> 10 µM
same,TGI,NCI-H460 lung,> 10 µM
same,TGI,NCI-H522 lung,> 10 µM
same,TGI,NCI/ADR-RES ovarian,> 10 µM
same,TGI,OVCAR-3 ovarian,> 10 µM
same,TGI,OVCAR-4 ovarian,> 10 µM
same,TGI,OVCAR-5 ovarian,> 10 µM
same,TGI,OVCAR-8 ovarian,> 10 µM
same,TGI,PC-3 prostate,> 10 µM
same,TGI,RPMI-8226 leukemia,> 10 µM
same,TGI,RXF 393 renal,> 10 µM
same,TGI,SF-268 CNS,> 10 µM
same,TGI,SF-295 CNS,> 10 µM
same,TGI,SF-539 CNS,> 10 µM
same,TGI,SK-MEL-2 melanoma,> 10 µM
same,TGI,SK-MEL-28 melanoma,> 10 µM
same,TGI,SK-MEL-5 melanoma,> 10 µM
same,TGI,SK-OV-3 ovarian,> 10 µM
same,TGI,SN12C renal,> 10 µM
same,TGI,SNB-19 CNS,> 10 µM
same,TGI,SNB-75 CNS,> 10 µM
same,TGI,SW-620 colon,> 10 µM
same,TGI,T-47D breast,> 10 µM
same,TGI,TK-10 renal,> 10 µM
same,TGI,U251 CNS,> 10 µM
same,TGI,UACC-257 melanoma,> 10 µM
same,TGI,UACC-62 melanoma,> 10 µM
CN1CCN(C(=S)N(C(=O)c2ccc(Cl)cc2)C2CCCCC2)CC1,TGI,786-0 renal,> 100 µM
same,TGI,A549 NSCLC,> 100 µM
same,TGI,ACHN renal,> 100 µM
same,TGI,BT-549 breast,> 100 µM
same,TGI,CCRF-CEM leukemia,> 100 µM
same,TGI,COLO 205 colon,> 100 µM
same,TGI,DU-145 prostate,> 100 µM
same,TGI,HCC-2998 colon,> 100 µM
same,TGI,HCT-15 colon,> 100 µM
same,TGI,HL-60(TB) leukemia,> 100 µM
same,TGI,HOP-92 NSCLC,> 100 µM
same,TGI,HS 578T breast,> 100 µM
same,TGI,HT29 colon,> 100 µM
same,TGI,IGROV1 ovarian,> 100 µM
same,TGI,K-562 leukemia,> 100 µM
same,TGI,KM12 colon,> 100 µM
same,TGI,LOX IMVI melanoma,> 100 µM
same,TGI,M14 melanoma,> 100 µM
same,TGI,MALME-3M melanoma,> 100 µM
same,TGI,MCF7 breast,> 100 µM
same,TGI,MDA-MB-231 breast,> 100 µM
same,TGI,MDA-MB-435,> 100 µM
same,TGI,MDA-N,> 100 µM
same,TGI,MOLT-4 leukemia,> 100 µM
same,TGI,NCI-H226 lung,> 100 µM
same,TGI,NCI-H23 lung,> 100 µM
same,TGI,NCI-H460 lung,> 100 µM
same,TGI,NCI-H522 lung,> 100 µM
same,TGI,OVCAR-3 ovarian,> 100 µM
same,TGI,OVCAR-4 ovarian,> 100 µM
same,TGI,OVCAR-5 ovarian,> 100 µM
same,TGI,OVCAR-8 ovarian,> 100 µM
same,TGI,RPMI-8226 leukemia,> 100 µM
same,TGI,RXF 393 renal,> 100 µM
same,TGI,SF-268 CNS,> 100 µM
same,TGI,SF-295 CNS,> 100 µM
same,TGI,SK-MEL-2 melanoma,> 100 µM
same,TGI,SK-MEL-28 melanoma,> 100 µM
same,TGI,SK-MEL-5 melanoma,> 100 µM
same,TGI,SN12C renal,> 100 µM
same,TGI,SNB-19 CNS,> 100 µM
same,TGI,SNB-75 CNS,85.2 µM
same,TGI,SR leukemia,> 100 µM
same,TGI,SW-620 colon,> 100 µM
same,TGI,T-47D breast,> 100 µM
same,TGI,TK-10 renal,> 100 µM
same,TGI,U251 CNS,> 100 µM
same,TGI,UACC-257 melanoma,> 100 µM
same,TGI,UACC-62 melanoma,> 100 µM
same,TGI,UO-31 renal,> 100 µM
CC1(C)C(=O)C2(N)CCC1C2 (centres undefined),TGI,786-0 renal,> 100 µM
same,TGI,ACHN renal,> 100 µM
same,TGI,BT-549 breast,> 100 µM
same,TGI,CAKI-1 renal,> 100 µM
same,TGI,CCRF-CEM leukemia,> 100 µM
same,TGI,COLO 205 colon,> 100 µM
same,TGI,DU-145 prostate,> 100 µM
same,TGI,HCC-2998 colon,> 100 µM
same,TGI,HCT-116 colon,> 100 µM
same,TGI,HCT-15 colon,> 100 µM
same,TGI,HOP-92 NSCLC,> 100 µM
same,TGI,KM12 colon,> 100 µM
same,TGI,LOX IMVI melanoma,> 100 µM
same,TGI,MDA-MB-231 breast,> 100 µM
same,TGI,MDA-MB-435,> 100 µM
same,TGI,MDA-N,> 100 µM
same,TGI,NCI-H226 lung,> 100 µM
same,TGI,NCI-H23 lung,> 100 µM
same,TGI,NCI-H460 lung,> 100 µM
same,TGI,NCI/ADR-RES ovarian,> 100 µM
same,TGI,OVCAR-4 ovarian,> 100 µM
same,TGI,OVCAR-8 ovarian,> 100 µM
same,TGI,RPMI-8226 leukemia,> 100 µM
same,TGI,SF-268 CNS,> 100 µM
same,TGI,SK-MEL-28 melanoma,> 100 µM
same,TGI,SN12C renal,> 100 µM
same,TGI,SNB-19 CNS,> 100 µM
same,TGI,SNB-75 CNS,> 100 µM
same,TGI,SR leukemia,> 100 µM
same,TGI,T-47D breast,> 100 µM
same,TGI,TK-10 renal,> 100 µM
same,TGI,U251 CNS,> 100 µM
same,TGI,UACC-257 melanoma,> 100 µM
same,TGI,UACC-62 melanoma,> 100 µM
same,TGI,UO-31 renal,> 100 µM
O=C(Nc1ccccn1)c1cc2c(cc1Cl)Sc1nccn1S2(=O)=O,TGI,786-0 renal,> 100 µM
same,TGI,A498 renal,> 100 µM
same,TGI,A549 NSCLC,> 100 µM
same,TGI,ACHN renal,> 100 µM
same,TGI,BT-549 breast,> 100 µM
same,TGI,CAKI-1 renal,> 100 µM
same,TGI,CCRF-CEM leukemia,95.9 µM
same,TGI,COLO 205 colon,83.5 µM
same,TGI,EKVX NSCLC,94.5 µM
same,TGI,HCC-2998 colon,30.9 µM
same,TGI,HCT-116 colon,> 100 µM
same,TGI,HCT-15 colon,> 100 µM
same,TGI,HL-60(TB) leukemia,74.3 µM
same,TGI,HOP-62 NSCLC,> 100 µM
same,TGI,HOP-92 NSCLC,> 100 µM
same,TGI,HS 578T breast,> 100 µM
same,TGI,HT29 colon,> 100 µM
same,TGI,IGROV1 ovarian,76.4 µM
same,TGI,K-562 leukemia,> 100 µM
same,TGI,KM12 colon,> 100 µM
same,TGI,LOX IMVI melanoma,> 100 µM
same,TGI,M14 melanoma,> 100 µM
same,TGI,MALME-3M melanoma,> 100 µM
same,TGI,MCF7 breast,> 100 µM
same,TGI,MDA-MB-231 breast,53 µM
same,TGI,MDA-MB-435,> 100 µM
same,TGI,MDA-N,> 100 µM
same,TGI,MOLT-4 leukemia,> 100 µM
same,TGI,NCI-H226 lung,57.3 µM
same,TGI,NCI-H23 lung,82.6 µM
same,TGI,NCI-H460 lung,> 100 µM
same,TGI,NCI-H522 lung,> 100 µM
same,TGI,NCI/ADR-RES ovarian,85.6 µM
same,TGI,OVCAR-3 ovarian,> 100 µM
same,TGI,OVCAR-4 ovarian,> 100 µM
same,TGI,OVCAR-5 ovarian,> 100 µM
same,TGI,OVCAR-8 ovarian,> 100 µM
same,TGI,PC-3 prostate,> 100 µM
same,TGI,RPMI-8226 leukemia,> 100 µM
same,TGI,RXF 393 renal,93.9 µM
same,TGI,SF-268 CNS,> 100 µM
same,TGI,SF-295 CNS,> 100 µM
same,TGI,SK-MEL-2 melanoma,48.8 µM
same,TGI,SK-MEL-28 melanoma,> 100 µM
same,TGI,SK-MEL-5 melanoma,67.6 µM
same,TGI,SK-OV-3 ovarian,> 100 µM
same,TGI,SN12C renal,> 100 µM
same,TGI,SNB-19 CNS,> 100 µM
same,TGI,SNB-75 CNS,> 100 µM
same,TGI,SR leukemia,> 100 µM
same,TGI,SW-620 colon,> 100 µM
same,TGI,T-47D breast,73.6 µM
same,TGI,TK-10 renal,> 100 µM
same,TGI,U251 CNS,> 100 µM
same,TGI,UACC-257 melanoma,> 100 µM
same,TGI,UACC-62 melanoma,> 100 µM
same,TGI,UO-31 renal,94.9 µM
